Source: patent US9856264B2, “Isoquinolinesulfonyl derivative as RHO kinase inhibitor” (MEDSHINE DISCOVERY INC., priority 2014, dated 2018)

Target: ROCK kinase
Test: In vitro ROCK kinase inhibition activity evaluation (33P-ATP filter-binding)
Type: biochemical
Design: key to ROCK inhibition activity: 1 μM ≦ + < 5 μM; 0.1 μM ≦ ++ < 1 μM; +++ < 0.1 μM; −− N/A
Details: 1 nM ROCK kinase, 20 μM Long S6 Kinase substrate peptide, 2 h room temperature
Method: Biological Activity Experiment: In Vitro ROCK Kinase Inhibition Activity Evaluation
Experimental Objective: Test ROCK Inhibition IC50 Value of Invented Compounds
Buffer solution: 20 mM Hepes (pH 7.5), 10 mM MgCl2, 1 mM EGTA, 0.02% Brij35, 0.02 mg/ml BSA, 0.1 mM Na3VO4, 2 mM DTT, 1% DMSO
To a freshly prepared buffer solution was added ROCK substrate Long S6 Kinase substrate peptide, with concentration at 20 μM. 1 nM ROCK kinase was then added, and well stirred. A series of DMSO solution (starting from 10 μM, dilution factor 3) of testing article was added using Echo550. The mixture was incubated for 20 min at room temperature, then was added ^33P-ATP (radioactive intensity 10 μCi/μL) to initiate reaction and further reacted for 2 h at room temperature. The mixture was filtered through P81 ion exchange paper (Whatman #3698-915), and washed by 0.75% phosphoric acid. The intensity of radiation was measured by Filter-Binding method.
The inhibition activity of the testing articles were measured by comparing the residue kinase activity to blank substrate (pure DMSO). Using Prism software ((GraphPad Software, San Diego Calif., USA) to calculate IC50 and curve.

SMILES | IC50 [nM] | ROCK inhibition activity
Cc1cnc(O)c2cccc(S(=O)(=O)N3C[C@@H]4CCN[C@@H]4C3)c12 (stereo in doubt) [Example 39, 5-((hexahydropyrrolo[3,4-b]pyrrol-5(1H)-yl)sulfonyl)-4-methylisoquinolin-1-ol] | 100 to 1000 | 
Cc1cncc2cccc(S(=O)(=O)N3C[C@H]4CCCN[C@H]4C3)c12 (stereo in doubt) [Example 40, 5-((hexahydro-1H-pyrrolo[3,4-b]pyridin-6(2H)-yl)sulfonyl)-4-methylisoquinoline] | < 100 | 
Cc1cncc2cccc(S(=O)(=O)N3C[C@H]4CN[C@H]4C3)c12 (stereo in doubt) [Example 41, 5-(3,6-diazabicyclo[3.2.0]heptan-3-ylsulfonyl)-4-methylisoquinoline] | < 100 | 
O=S(=O)(c1cccc2cncc(C(F)(F)F)c12)N1C[C@@H]2CCN[C@@H]2C1 (stereo in doubt) [Example 46, 5-((hexahydropyrrolo[3,4-b]pyrrol-5 (1H)-yl)sulfonyl)-4-(trifluoromethyl)isoquinoline] |  | −−
COc1cncc2cccc(S(=O)(=O)N3CC[C@@H]4NCC[C@@H]43)c12 (stereo in doubt) [Example 47, 5-((hexahydropyrrolo[3,2-b]pyrrol-1(2H)-yl)sulfonyl)-4-methoxyisoquinoline] | 1000 to 5000 | 
COc1cncc2cccc(S(=O)(=O)N3C[C@@H]4CCN[C@@H]4C3)c12 (stereo in doubt) [Example 48, 5-((hexahydropyrrolo[3,4-b]pyrrol-5 (1H)-yl)sulfonyl)-4-methoxyisoquinoline] | 1000 to 5000 | 
COc1cncc2cccc(S(=O)(=O)N3C[C@H]4CCCN[C@H]4C3)c12 (stereo in doubt) [Example 49, 5-((hexahydro-1H-pyrrolo[3,4-b]pyridin-6(2H)-yl)sulfonyl)-4-methoxyisoquinoline] | 1000 to 5000 | 
COc1cncc2cccc(S(=O)(=O)N3C[C@H]4CN[C@H]4C3)c12 (stereo in doubt) [Example 50, 5-(3,6-diazabicyclo[3.2.0]heptan-3-ylsulfonyl)-4-methoxyisoquinoline] | 1000 to 5000 | 
O=S(=O)(c1cccc2cnccc12)N1CCC2NCCCC2C1 (stereo not shown) [Example 5, 6-(isoquinolin-5-ylsulfonyl)decahydro-1,6-naphthyridine] | 100 to 1000 | 
O=S(=O)(c1cccc2cnccc12)N1CCC2NCCCC21 (stereo not shown) [Example 6, 5-((octahydro-1H-pyrrolo[3,2-b]pyridin-1-yl)sulfonyl)isoquinoline] | 100 to 1000 | 
O=S(=O)(c1cccc2cnccc12)N1C[C@H]2CNC[C@H]2C1 [Example 7, 5-((hexahydropyrrolo[3,4-c]pyrrol-2(1H)-yl)sulfonyl)isoquinoline] | 100 to 1000 | 
O=S(=O)(c1cccc2cnccc12)N1CC2CCNCC2C1 (stereo not shown) [Example 8, 5-((hexahydro-1H-pyrrolo[3,4-c]pyridin-2(3H)-yl)sulfonyl)isoquinoline] | 100 to 1000 | 
O=S(=O)(c1cccc2cnccc12)N1CCC2CCNC2C1 (stereo not shown) [Example 9, 5-((hexahydro-1H-pyrrolo[2,3-c]pyridin-6(2H)-yl)sulfonyl) isoquinoline] | 1000 to 5000 | 
NC1CN(S(=O)(=O)c2cccc3cnccc23)CC12CC2 (stereo not shown) [Example 10, 5-(isoquinolin-5-ylsulfonyl)-5-azaspiro[2.4]heptan-7-amine] |  | −−
CCNC1CN(S(=O)(=O)c2cccc3cnccc23)CC12CC2 (stereo not shown) [Example 11, N-ethyl-5-(isoquinolin-5-ylsulfonyl)-5-azaspiro[2.4]heptan-7-amine] |  | −−
NC1CCN(S(=O)(=O)c2cccc3cnccc23)C12CC2 (stereo not shown) [Example 13, 4-(isoquinolin-5-ylsulfonyl)-4-azaspiro[2.4]heptan-7-amine] | < 100 | 
O=S(=O)(c1cccc2cnccc12)N1CCC2NCCCCC21 (stereo not shown) [Example 14, 1-(isoquinolin-5-ylsulfonyl)decahydropyrrolo[3,2-b]azepine] | 100 to 1000 | 
O=S(=O)(c1cccc2cnccc12)N1CCC2CNCC2C1 (stereo not shown) [Example 15, 5-((hexahydro-1H-pyrrolo[3,4-c]pyridin-5(6H)-yl)sulfonyl)isoquinoline] | 100 to 1000 | 
O=S(=O)(c1cccc2cncc(Cl)c12)N1CCC2NCCCC2C1 (stereo not shown) [Example 20, 6-((4-chloroisoquinolin-5-yl)sulfonyl)decahydro-1,6-naphthyridine] | 100 to 1000 | 
O=S(=O)(c1cccc2cncc(Cl)c12)N1CCC2NCCCC21 (stereo not shown) [Example 21, 4-chloro-5-((octahydro-1H-pyrrolo[3,2-b]pyridin-1-yl)sulfonyl)isoquinoline] | 100 to 1000 | 

SMILES | IC50 [nM] | ROCK inhibition activity
O=S(=O)(c1cccc2cncc(Cl)c12)N1C[C@H]2CNC[C@H]2C1 [Example 22, 4-chloro-5-((hexahydropyrrolo[3,4-c]pyrrol-2(1H)-yl)sulfonyl)isoquinoline] | 100 to 1000 | 
O=S(=O)(c1cccc2cncc(Cl)c12)N1CC2CCNCC2C1 (stereo not shown) [Example 23, 4-chloro-5-((hexahydro-1H-pyrrolo[3,4-c]pyridin-2(3H)-yl)sulfonyl)isoquinoline] | 100 to 1000 | 
O=S(=O)(c1cccc2cncc(F)c12)N1C[C@@H]2CCN[C@@H]2C1 [Example 25, 4-fluoro-5-((hexahydropyrrolo[3,4-b]pyrrol-5(1H)-yl)sulfonyl)isoquinoline] | 100 to 1000 | 
O=S(=O)(c1cccc2cncc(F)c12)N1CCC2NCCCC21 (stereo not shown) [Example 28, 4-fluoro-5-((octahydro-1H-pyrrolo[3,2-b]pyridin-1-yl)sulfonyl)isoquinoline] | 100 to 1000 | 
O=S(=O)(c1cccc2cncc(F)c12)N1C[C@H]2CNC[C@H]2C1 [Example 29, 4-fluoro-5-((hexahydropyrrolo[3,4-c]pyrrol-2(1H)-yl)sulfonyl)isoquinoline] | 100 to 1000 | 
O=S(=O)(c1cccc2cncc(F)c12)N1CC2CCCNC2C1 (stereo not shown) [Example 30, 4-fluoro-5-((hexahydro-1H-pyrrolo[3,4-b]pyridin-6(2H)-yl)sulfonyl)isoquinoline] | 100 to 1000 | 
O=S(=O)(c1cccc2cncc(C(F)F)c12)N1C[C@H]2CNC[C@H]2C1 [Example 35, 4-(difluoromethyl)-5-((hexahydropyrrolo[3,4-c]pyrrol-2(1H)-yl)sulfonyl)isoquinoline] |  | −−
O=S(=O)(c1cccc2cncc(C(F)F)c12)N1CC2CCNCC2C1 (stereo not shown) [Example 36, 4-(difluoromethyl)-5-((hexahydro-1H-pyrrolo[3,4-c]pyridin-2(3H)-yl)sulfonyl)isoquinoline] |  | −−
Cc1cncc2cccc(S(=O)(=O)N3C[C@@H]4CCN[C@@H]4C3)c12 [Example 38, 5-((hexahydropyrrolo[3,4-d]pyrrol-5 (1H)-yl)sulfonyl)-4-methylisoquinoline] | < 100 | 
Cc1cncc2cccc(S(=O)(=O)N3CCC4NCCCC43)c12 (stereo not shown) [Example 42, 4-methyl-5-((octahydro-1H-pyrrolo[3,2-b]pyridin-1-yl)sulfonyl)isoquinoline] | < 100 | 
Cc1cncc2cccc(S(=O)(=O)N3C[C@H]4CNC[C@H]4C3)c12 [Example 43, 5-((hexahydropyrrolo[3,4-c]pyrrol-2(1H)-yl)sulfonyl)-4-methylisoquinoline] | < 100 | 
Cc1cncc2cccc(S(=O)(=O)N3CC4CCNCC4C3)c12 (stereo not shown) [Example 44, 5-((hexahydro-1H-pyrrolo[3,4-c]pyridin-2(3H)-yl)sulfonyl)-4-methylisoquinoline] | < 100 | 
Cc1cncc2cccc(S(=O)(=O)N3CCC4NCCCC4C3)c12 (stereo not shown) [Example 45, 6-((4-methylisoquinolin-5-yl)sulfonyl)decahydro-1,6-naphthyridine] | 1000 to 5000 | 
COc1cncc2cccc(S(=O)(=O)N3CCC4NCCCC43)c12 (stereo not shown) [Example 51, 4-methoxy-5-((octahydro-1H-pyrrolo[3,2-b]pyridin-1-yl)sulfonyl)isoquinoline] | 1000 to 5000 | 
COc1cncc2cccc(S(=O)(=O)N3C[C@H]4CNC[C@H]4C3)c12 [Example 52, 5-((hexahydropyrrolo[3,4-c]pyrrol-2(1H)-yl)sulfonyl)-4-methoxyisoquinoline] | 1000 to 5000 | 
COc1cncc2cccc(S(=O)(=O)N3CC4CCNCC4C3)c12 (stereo not shown) [Example 53, 5-((hexahydro-1H-pyrrolo[3,4-c]pyridin-2(3H)-yl)sulfonyl)-4-methoxyisoquinoline] | 1000 to 5000 | 
COc1cncc2cccc(S(=O)(=O)N3CCC4NCCCC4C3)c12 (stereo not shown) [Example 54, 6-((4-methoxyisoquinolin-5-yl)sulfonyl)decahydro-1,6-naphthyridine] | 1000 to 5000 | 
NC12CCC1CN(S(=O)(=O)c1cccc3cnccc13)C2 (stereo not shown) [Example 55, 3-(isoquinolin-5-ylsulfonyl)-3-azabicyclo[3.2.0]heptan-1-amine] | 1000 to 5000 | 
NC12CC1CN(S(=O)(=O)c1cccc3cnccc13)C2 (stereo not shown) [Example 56, 3-(isoquinolin-5-ylsulfonyl)-3-azabicyclo[3.1.0]hexan-1-amine] | 100 to 1000 | 
CCNC12CC1CN(S(=O)(=O)c1cccc3cnccc13)C2 (stereo not shown) [Example 57, N-ethyl-3-(isoquinolin-5-ylsulfonyl)-3-azabicyclo[3.1.0]hexan-1-amine] | 1000 to 5000 | 
